Biological target: glucan synthase (GS) prepared from Candida albicans MY1055 (Candida albicans, UniProt O13428)
Assay: Glucan synthase inhibition (polymerization assay, 96-well)
Format: biochemical
Conditions: GS from C. albicans MY1055; 60 min incubation at 22° C.; read-out: Candida Albicans GS IC50 (converted)
How it was run: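 Partially purified glucan synthase from C. albicans MY1055 membranes incorporated 0.5 mM ³H-UDPG with 25 μM GTP-γ-S, HEPES pH 7.5, over 60 min at 22 °C. TCA-precipitated glucan was counted by scintillation. IC50 (ng/mL) came from sigmoidal fits of duplicate 3-fold dilution series.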

Sequence of glucan synthase (GS) prepared from Candida albicans MY1055 (O13428 1-1897): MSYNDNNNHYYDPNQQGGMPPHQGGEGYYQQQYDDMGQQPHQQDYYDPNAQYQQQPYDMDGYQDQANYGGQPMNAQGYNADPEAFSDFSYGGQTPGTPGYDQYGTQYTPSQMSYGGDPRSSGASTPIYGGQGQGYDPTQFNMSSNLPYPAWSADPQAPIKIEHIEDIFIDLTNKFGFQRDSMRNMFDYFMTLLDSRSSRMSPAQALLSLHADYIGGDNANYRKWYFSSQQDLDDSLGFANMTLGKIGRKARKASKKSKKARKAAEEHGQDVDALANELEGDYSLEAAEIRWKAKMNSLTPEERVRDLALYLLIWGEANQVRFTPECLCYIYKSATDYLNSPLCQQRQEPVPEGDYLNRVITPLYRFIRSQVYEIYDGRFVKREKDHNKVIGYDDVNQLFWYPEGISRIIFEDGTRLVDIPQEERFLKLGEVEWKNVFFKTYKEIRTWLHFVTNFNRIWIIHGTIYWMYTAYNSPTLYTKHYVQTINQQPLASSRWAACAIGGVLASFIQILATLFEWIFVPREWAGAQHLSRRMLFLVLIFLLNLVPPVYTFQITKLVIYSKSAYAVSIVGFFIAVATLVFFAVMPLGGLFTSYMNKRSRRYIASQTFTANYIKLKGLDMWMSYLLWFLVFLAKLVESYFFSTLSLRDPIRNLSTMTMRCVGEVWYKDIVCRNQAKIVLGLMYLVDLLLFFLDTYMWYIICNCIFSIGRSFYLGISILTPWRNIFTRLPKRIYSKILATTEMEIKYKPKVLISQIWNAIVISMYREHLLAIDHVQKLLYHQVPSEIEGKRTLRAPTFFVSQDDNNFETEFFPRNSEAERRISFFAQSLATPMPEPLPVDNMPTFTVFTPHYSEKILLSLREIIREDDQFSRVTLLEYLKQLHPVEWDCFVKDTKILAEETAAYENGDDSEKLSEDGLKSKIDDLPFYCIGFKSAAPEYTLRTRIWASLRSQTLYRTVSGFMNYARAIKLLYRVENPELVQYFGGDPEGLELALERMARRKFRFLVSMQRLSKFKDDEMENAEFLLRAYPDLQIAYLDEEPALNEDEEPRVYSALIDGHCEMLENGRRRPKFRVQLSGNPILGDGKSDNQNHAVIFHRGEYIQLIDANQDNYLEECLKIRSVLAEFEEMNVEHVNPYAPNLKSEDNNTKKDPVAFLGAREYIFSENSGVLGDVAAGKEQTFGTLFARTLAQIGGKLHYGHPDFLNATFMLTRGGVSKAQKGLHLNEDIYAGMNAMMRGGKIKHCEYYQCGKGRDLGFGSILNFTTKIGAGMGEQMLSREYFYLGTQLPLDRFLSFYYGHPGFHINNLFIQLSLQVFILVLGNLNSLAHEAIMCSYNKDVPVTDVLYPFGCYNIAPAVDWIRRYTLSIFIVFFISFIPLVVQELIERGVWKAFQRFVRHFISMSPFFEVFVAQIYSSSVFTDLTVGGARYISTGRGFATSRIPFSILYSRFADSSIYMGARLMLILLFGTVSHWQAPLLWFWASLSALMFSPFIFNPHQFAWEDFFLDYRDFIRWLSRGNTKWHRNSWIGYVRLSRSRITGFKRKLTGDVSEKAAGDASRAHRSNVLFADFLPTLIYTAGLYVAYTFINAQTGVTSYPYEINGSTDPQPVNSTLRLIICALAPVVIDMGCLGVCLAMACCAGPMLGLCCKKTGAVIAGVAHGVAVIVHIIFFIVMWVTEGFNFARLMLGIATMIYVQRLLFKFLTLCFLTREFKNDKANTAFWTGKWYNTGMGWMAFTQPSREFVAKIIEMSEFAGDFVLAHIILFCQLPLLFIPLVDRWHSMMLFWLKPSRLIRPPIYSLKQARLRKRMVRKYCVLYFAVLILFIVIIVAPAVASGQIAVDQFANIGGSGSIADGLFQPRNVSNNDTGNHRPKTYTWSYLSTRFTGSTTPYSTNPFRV

Compound	IC50 [nM]
CCOC(=O)c1nccn1[C@@H]1C[C@@]23COC[C@](C)([C@@H]2CC[C@H]2C3=CC[C@@]3(C)[C@H](C(=O)O)[C@@](C)([C@H](C)C(C)C)CC[C@]23C)[C@H]1OC[C@](C)(N)C(C)C [Example 300, (1S,4aR,6aS,7R,8R,10aR,10bR,12aR,14R,15R)-15-[[(2R)-2-amino-2,3-dimethylbutyl]oxy]-8-[(1R)-1,2-dimethylpropyl]-14-[2-(ethoxycarbonyl)-1H-imidazol-1-yl]-1,6,6a,7,8,9,10,10a,10b,11,12,12a-dodecahydro-1,6a,8,10a-tetramethyl-4H-1,4a-propano-2H-phenanthro[1,2-c]pyran-7-carboxylic acid]	675
CNC(=O)c1ncnn1[C@@H]1C[C@@]23COC[C@](C)([C@@H]2CC[C@H]2C3=CC[C@@]3(C)[C@H](C(=O)O)[C@@](C)([C@H](C)C(C)C)CC[C@]23C)[C@H]1OC[C@](C)(N)C(C)(C)C [Example 89, (1S,4aR,6aS,7R,8R,10aR,10bR,12aR,14R,15R)-15-[[(2R)-2-amino-2,3,3-trimethylbutyl]oxy]-8-[(1R)-1,2-dimethylpropyl]-14-[5-[(methylamino)carbonyl]-1H-1,2,4-triazol-1-yl]-1,6,6a,7,8,9,10,10a,10b,11,12,12a-dodecahydro-1,6a,8,10a-tetramethyl-4H-1,4a-propano-2H-phenanthro[1,2-c]pyran-7-carboxylic acid]	11.3
CC(C)[C@@H](C)[C@@]1(C)CC[C@]2(C)[C@H]3CC[C@@H]4[C@@]5(COC[C@@]4(C)[C@@H](OC[C@](C)(N)C(C)(C)C)[C@H](n4ncnc4-c4cccc(C(N)=O)c4)C5)C3=CC[C@@]2(C)[C@@H]1C(=O)O [Example 228, (1S,4aR,6aS,7R,8R,10aR,10bR,12aR,14R,15R)-14-[5-[3-(aminocarbonyl)phenyl]-1H-1,2,4-triazol-1-yl]-15-[[(2R)-2-amino-2,3,3-trimethylbutyl]oxy]-8-[(1R)-1,2-dimethylpropyl]-1,6,6a,7,8,9,10,10a,10b,11,12,12a-dodecahydro-1,6a,8,10a-tetramethyl-4H-1,4a-propano-2H-phenanthro[1,2-c]pyran-7-carboxylic acid]	7.77
CC(C)[C@@H](C)[C@@]1(C)CC[C@]2(C)[C@H]3CC[C@@H]4[C@@]5(COC[C@@]4(C)[C@@H](OC[C@](C)(N)C(C)C)[C@H](n4ncnc4N4CCOCC4)C5)C3=CC[C@@]2(C)[C@@H]1C(=O)O [Example 148, (1S,4aR,6aS,7R,8R,10aR,10bR,12aR,14R,15R)-15-[[(2R)-2-amino-2,3-dimethylbutyl]oxy]-8-[(1R)-1,2-dimethylpropyl]-14-[5-(4-morpholinyl)-1H-1,2,4-triazol-1-yl]-1,6,6a,7,8,9,10,10a,10b,11,12,12a-dodecahydro-1,6a,8,10a-tetramethyl-4H-1,4a-propano-2H-phenanthro[1,2-c]pyran-7-carboxylic acid]	18
CC(C)[C@@H](C)[C@@]1(C)CC[C@]2(C)[C@H]3CC[C@@H]4[C@@]5(COC[C@@]4(C)[C@@H](OC[C@](C)(N)C(C)C)[C@H](n4ncnc4C4=NCCN4)C5)C3=CC[C@@]2(C)[C@@H]1C(=O)O [Example 128, (1S,4aR,6aS,7R,8R,10aR,10bR,12aR,14R,15R)-15-[[(2R)-2-amino-2,3-dimethylbutyl]oxy]-14-[5-(4,5-dihydro-1H-imidazol-2-yl)-1H-1,2,4-triazol-1-yl]-8-[(1R)-1,2-dimethylpropyl]-1,6,6a,7,8,9,10,10a,10b,11,12,12a-dodecahydro-1,6a,8,10a-tetramethyl-4H-1,4a-propano-2H-phenanthro[1,2-c]pyran-7-carboxylic acid]	8.49
CC(C)[C@@H](C)[C@@]1(C)CC[C@]2(C)[C@H]3CC[C@@H]4[C@@]5(COC[C@@]4(C)[C@@H](OC[C@](C)(N)C(C)C)[C@H](n4ncnc4C(=O)NCC(F)(F)F)C5)C3=CC[C@@]2(C)[C@@H]1C(=O)O [Example 80, (1S,4aR,6aS,7R,8R,10aR,10bR,12aR,14R,15R)-15-[[(2R)-2-amino-2,3-dimethylbutyl]oxy]-8-[(1R)-1,2-dimethylpropyl]-14-[5-[[(2,2,2-trifluoroethyl)amino]carbonyl]-1H-1,2,4-triazol-1-yl]-1,6,6a,7,8,9,10,10a,10b,11,12,12a-dodecahydro-1,6a,8,10a-tetramethyl-4H-1,4a-propano-2H-phenanthro[1,2-c]pyran-7-carboxylic acid]	10.5
CCS(=O)(=O)c1ncnn1[C@@H]1C[C@@]23COC[C@](C)([C@@H]2CC[C@H]2C3=CC[C@@]3(C)[C@H](C(=O)O)[C@@](C)([C@H](C)C(C)C)CC[C@]23C)[C@H]1OC[C@](C)(N)C(C)C [Example 140, (1S,4aR,6aS,7R,8R,10aR,10bR,12aR,14R,15R)-15-[[(2R)-2-amino-2,3-dimethylbutyl]oxy]-8-[(1R)-1,2-dimethylpropyl]-14-[5-(ethylsulfonyl)-1H-1,2,4-triazol-1-yl]-1,6,6a,7,8,9,10,10a,10b,11,12,12a-dodecahydro-1,6a,8,10a-tetramethyl-4H-1,4a-propano-2H-phenanthro[1,2-c]pyran-7-carboxylic acid]	6.84
CC(C)[C@@H](C)[C@@]1(C)CC[C@]2(C)[C@H]3CC[C@@H]4[C@@]5(COC[C@@]4(C)[C@@H](OC[C@](C)(N)C(C)C)[C@H](n4ncnc4-n4cncn4)C5)C3=CC[C@@]2(C)[C@@H]1C(=O)O [Example 138, (1S,4aR,6aS,7R,8R,10aR,10bR,12aR,14R,15R)-15-[[(2R)-2-amino-2,3-dimethylbutyl]oxy]-14-[1,5′-bi-1H-1,2,4-triazol]-1′-yl-8-[(1R)-1,2-dimethylpropyl]-1,6,6a,7,8,9,10,10a,10b,11,12,12a-dodecahydro-1,6a,8,10a-tetramethyl-4H-1,4a-propano-2H-phenanthro[1,2-c]pyran-7-carboxylic acid]	8.5
CC(C)[C@@H](C)[C@@]1(C)CC[C@]2(C)[C@H]3CC[C@@H]4[C@@]5(COC[C@@]4(C)[C@@H](OCC(C)(C(C)C)N(C)C)[C@H](n4cnc(Cl)n4)C5)C3=CC(=O)[C@@]2(C)[C@@H]1C(=O)O (stereo partly drawn) [Example 9C, (1S,4aR,6aS,7R,8R,10aR,10bR,12aR,14R,15R)-14-(3-chloro-1H-1,2,4-triazol-1-yl)-15-[2-(dimethylamino)-2,3-dimethylbutoxy]-8-[(1R)-1,2-dimethylpropyl]-1,6,6a,7,8,9,10,10a,10b,11,12,12a-dodecahydro-1,6a,8,10a-tetramethyl-6-oxo-4H-1,4a-propano-2H-phenanthro[1,2-c]pyran-7-carboxylic acid]	74.1
CC(C)NC(=O)c1ncn([C@@H]2C[C@@]34COC[C@](C)([C@@H]3CC[C@H]3C4=CC[C@@]4(C)[C@H](C(=O)O)[C@@](C)([C@H](C)C(C)C)CC[C@]34C)[C@H]2OC[C@](C)(N)C(C)C)n1 (single isomer, unassigned) [Example 37B]	60.8
CC(C)[C@@H](C)[C@@]1(C)CC[C@]2(C)[C@H]3CC[C@@H]4[C@@]5(COC[C@@]4(C)[C@@H](OC[C@](C)(N)C(C)(C)C)[C@H](n4ncnc4Br)C5)C3=CC[C@@]2(C)[C@@H]1C(=O)O [Example 11, (1S,4aR,6aS,7R,8R,10aR,10bR,12aR,14R,15R)-15-[[(2R)-2-amino-2,3,3-trimethylbutyl]oxy]-14-(5-bromo-1H-1,2,4-triazol-1-yl)-8-[(1R)-1,2-dimethylpropyl]-1,6,6a,7,8,9,10,10a,10b,11,12,12a-dodecahydro-1,6a,8,10a-tetramethyl-4H-1,4a-propano-2H-phenanthro[1,2-c]pyran-7-carboxylic acid]	4.1
